One data set concerns the target GSK 3α (Homo sapiens (Human), UniProt P49840). Briefly: GSK 3α enzyme inhibition (FRET, Z-LYTE; Method 2). It is filed as biochemical. The note with it: read-out: IC50 Values for Enzyme Inhibition GSK3α. A digest of the protocol: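 Z-LYTE FRET assay: GSK3-α (500 ng/mL stock) preincubated 105 min at RT with compound at 10, 1, 0.1 or 0.01 μg/mL stock. FRET peptide (8 μM stock) and ATP (40 μM stock) were then added for 1 h, followed by protease development for 1 h. Phosphorylation was read as coumarin/fluorescein emission ratio.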

The target of the next data set is CYP3A4 (Homo sapiens (Human), UniProt P08684). Briefly: CYP3A4 inhibition study. Type of data set: in vitro ADME. The note with it: for inhibition at 15 µM: human, read-out: 15 μM % Inh. How it is done: (§1) Assessment of certain in vitro ADME (absorption, distribution, metabolism, and excretion) parameters for certain compounds of the invention was conducted by BioFocus (Saffron Walden, UK).

A further data set addresses Syk (Homo sapiens (Human), UniProt P43405). The data set can be described thus: Syk enzyme inhibition (FRET, Z-LYTE). It is filed as biochemical. A digest of the protocol:
(§2)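 Syk or c-Src enzyme (3000 or 2000 ng/mL solutions) was preincubated 2 h at RT with compound solutions at 1, 0.1, 0.01 or 0.001 µg/mL. Z-LYTE FRET peptide (8 µM solution) and ATP (800 µM solution for c-Src, 60 µM for Syk) were then added for 1 h, followed by protease development for 1 h. Phosphorylation was read as the coumarin/fluorescein emission ratio.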

In a further data set the target is c-Src (Homo sapiens (Human), UniProt P12931). The data set can be described thus: c-Src enzyme inhibition (FRET, Z-LYTE). It is filed as biochemical. The gist of the method: as §2
The next data set concerns the target p38 MAPKα (MAPK14) (Homo sapiens (Human), UniProt Q16539). The data set can be described thus: p38 MAPKα enzyme inhibition (FRET, Z-LYTE; Method 2). Type of data set: biochemical.
For data set [1], the system named is β-catenin in d-U937 cells. Briefly: Accumulation of β catenin in d-U937 cells (assay m). It is filed as cell-based, human. The gist of the method: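 U937 cells were differentiated with PMA (100 ng/mL) for 48–72 hr, then treated with compound or vehicle for 18 hr. After formaldehyde fixation, β-catenin was detected with a primary antibody and an HRP secondary using TMB (OD450–655). Signal was normalised to crystal violet cell staining (OD595).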

Data set [2] concerns TNBS-induced colitis in BDF1 mice. The data set can be described thus: TNBS-induced colitis in mice (in vivo iv). Set-up: species or system mouse. The note with it: for inflammatory cell infiltrate in the reticular and laminar propria zones / ulcer grade and epithelial repair compared to the vehicle control: 5 mg/kg orally, 2 days; for inflammatory cell infiltrate in the reticular and laminar propria zones / ulcer grade and epithelial repair compared to the vehicle control / activity in in vivo model of colonic inflammation (histopathology analysis): TNBS-induced colitis, mice; for LP inflammation / Ulcer grade: TNBS-induced colitis in mice, 5 mg/kg oral; for activity in in vivo model of colonic inflammation (histopathology analysis): conducted over 2 days. Here is the method: Non-fasted, 10-12 week old, male BDF1 mice are dosed by oral gavage twice daily with either vehicle (5 mL/kg), reference item (Budesonide 2.5 mg/kg) or test compound (1 or 5 mg/kg) one day before (Day −1) stimulation of the inflammatory response by treatment with 2,4,6-trinitrobenzenesulphonic acid (TNBS) (15 mg/mL in 50% ethanol/50% saline). On Day 0 of the study TNBS (200 μL) is administered intra-colonically via a plastic catheter with BID dosing of the vehicle, reference or test compound continuing for 2 or 4 days. During the study, animals are weighed every day and stool observations are made and recorded as a score, based on stool consistency. At the time of sacrifice on Day 2 (or Day 4), the large intestine is removed and the length and weight recorded. Sections of the colon are taken for histopathology scoring to determine disease severity.

The next data set concerns the target CYP2C9 (Homo sapiens (Human), UniProt P11712). The data set can be described thus: CYP2C9 inhibition study. Type of data set: in vitro ADME. The note with it: 5 μM (precipitation at 15 μM). Here is the method:
as §1

A short description of data set [3]: Hydrolytic stability study. It is filed as physicochemical. The note with it: for % Parent Remaining: DMSO:water (3:1), 1 mg/mL. How it is done: Chemical stability of compounds of the invention was assessed in a mixture of DMSO and water (3:1) at a test compound concentration of 1 mg/mL
Sample Preparation • A 1.0 mg sample of test compound was dissolved in 750 μL of DMSO. Water (250 μL) was added slowly, ensuring no precipitation occurred.
Recording Stability • A 50 μL aliquot of the test solution was removed and analysed in duplicate by 5 μL HPLC injections. The peak area for the test compound was recorded following manual integration of the corresponding UV trace. • The test solution was heated to 60° C., with stirring, and 50 μL aliquots removed for HPLC analysis at 5 and 24 h timepoints.

SMILES strings stand for the structures. Where two headings read alike, the source gives them in different places.

Sequence of p38 MAPKα (MAPK14) (Q16539 whole entry): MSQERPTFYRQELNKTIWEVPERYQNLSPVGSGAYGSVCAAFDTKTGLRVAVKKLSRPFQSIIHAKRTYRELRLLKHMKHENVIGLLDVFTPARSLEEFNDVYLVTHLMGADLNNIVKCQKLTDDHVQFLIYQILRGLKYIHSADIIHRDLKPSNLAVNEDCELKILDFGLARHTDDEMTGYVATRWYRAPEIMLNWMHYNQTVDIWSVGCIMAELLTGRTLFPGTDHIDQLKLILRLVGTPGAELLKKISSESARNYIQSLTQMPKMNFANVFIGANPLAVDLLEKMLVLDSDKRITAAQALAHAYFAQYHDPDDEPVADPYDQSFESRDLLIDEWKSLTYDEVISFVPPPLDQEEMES
Sequence of CYP3A4 (P08684 whole entry): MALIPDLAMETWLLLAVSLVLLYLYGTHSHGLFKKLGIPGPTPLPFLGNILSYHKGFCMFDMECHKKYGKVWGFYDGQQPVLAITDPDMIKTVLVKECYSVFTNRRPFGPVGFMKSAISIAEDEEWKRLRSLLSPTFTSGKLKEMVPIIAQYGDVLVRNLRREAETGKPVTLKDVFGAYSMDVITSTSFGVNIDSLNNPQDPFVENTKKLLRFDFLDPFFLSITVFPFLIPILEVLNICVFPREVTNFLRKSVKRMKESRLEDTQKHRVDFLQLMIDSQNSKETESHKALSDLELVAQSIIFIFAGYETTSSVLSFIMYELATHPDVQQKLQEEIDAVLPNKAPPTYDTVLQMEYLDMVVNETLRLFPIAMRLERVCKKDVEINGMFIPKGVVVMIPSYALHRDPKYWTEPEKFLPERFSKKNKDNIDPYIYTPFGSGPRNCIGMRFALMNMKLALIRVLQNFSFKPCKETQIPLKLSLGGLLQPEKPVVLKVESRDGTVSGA
Sequence of GSK 3α (P49840 whole entry): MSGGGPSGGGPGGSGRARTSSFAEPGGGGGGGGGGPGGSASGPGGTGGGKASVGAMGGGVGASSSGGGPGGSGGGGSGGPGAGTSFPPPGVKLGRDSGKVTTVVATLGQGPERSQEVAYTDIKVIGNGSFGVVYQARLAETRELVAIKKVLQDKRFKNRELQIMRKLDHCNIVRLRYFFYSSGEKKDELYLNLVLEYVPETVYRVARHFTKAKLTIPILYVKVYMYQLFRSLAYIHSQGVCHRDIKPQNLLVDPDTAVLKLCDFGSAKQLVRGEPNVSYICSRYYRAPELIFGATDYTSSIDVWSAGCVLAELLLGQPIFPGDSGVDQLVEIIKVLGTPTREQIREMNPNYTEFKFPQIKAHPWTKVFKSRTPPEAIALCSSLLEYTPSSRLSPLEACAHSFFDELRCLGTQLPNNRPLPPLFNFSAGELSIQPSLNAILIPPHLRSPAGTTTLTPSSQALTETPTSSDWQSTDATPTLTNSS
Sequence of c-Src (P12931 whole entry, looked up): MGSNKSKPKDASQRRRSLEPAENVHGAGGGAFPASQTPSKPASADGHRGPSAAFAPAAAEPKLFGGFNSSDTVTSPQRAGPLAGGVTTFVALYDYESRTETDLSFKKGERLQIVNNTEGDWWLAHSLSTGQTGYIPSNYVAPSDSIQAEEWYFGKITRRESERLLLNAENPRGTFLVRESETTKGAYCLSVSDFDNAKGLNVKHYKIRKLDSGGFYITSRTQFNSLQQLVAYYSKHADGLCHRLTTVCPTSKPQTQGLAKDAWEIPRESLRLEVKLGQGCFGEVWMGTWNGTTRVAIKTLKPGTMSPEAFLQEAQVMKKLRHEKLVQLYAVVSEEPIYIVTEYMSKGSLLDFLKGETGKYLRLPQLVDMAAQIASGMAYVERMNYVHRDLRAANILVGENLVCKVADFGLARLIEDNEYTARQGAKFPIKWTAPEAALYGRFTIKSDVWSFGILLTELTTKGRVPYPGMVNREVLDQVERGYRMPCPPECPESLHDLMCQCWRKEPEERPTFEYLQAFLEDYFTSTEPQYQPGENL
Sequence of CYP2C9 (P11712 whole entry): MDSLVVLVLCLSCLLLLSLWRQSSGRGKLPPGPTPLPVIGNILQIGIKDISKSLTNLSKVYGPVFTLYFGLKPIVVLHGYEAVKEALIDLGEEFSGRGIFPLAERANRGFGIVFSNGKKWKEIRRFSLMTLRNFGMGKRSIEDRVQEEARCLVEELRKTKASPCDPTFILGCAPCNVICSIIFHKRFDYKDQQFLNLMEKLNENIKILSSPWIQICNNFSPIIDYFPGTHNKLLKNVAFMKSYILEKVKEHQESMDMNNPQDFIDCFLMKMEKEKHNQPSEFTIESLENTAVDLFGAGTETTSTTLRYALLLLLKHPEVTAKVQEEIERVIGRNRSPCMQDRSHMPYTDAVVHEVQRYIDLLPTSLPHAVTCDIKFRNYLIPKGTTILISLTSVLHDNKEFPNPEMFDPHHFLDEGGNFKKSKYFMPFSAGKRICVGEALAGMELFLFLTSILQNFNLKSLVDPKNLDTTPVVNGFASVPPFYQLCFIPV

On to `COc1cc(Nc2nccc(Oc3ccc(NC(=O)Nc4cc(C(C)(C)C)cc(NS(C)(=O)=O)c4OC)c4ccccc34)n2)cc(S(=O)(=O)C2CC2)c1` [Example 5], for which the IC50 on GSK 3α was 2870 nM; at CYP3A4 (CYP3A4, 0 min preincubation), > 15000 nM; against CYP3A4 (CYP3A4, 30 min preincubation), > 15000 nM; on Syk, 1170 nM; against c-Src, 48 nM; at p38 MAPKα (MAPK14) it was 271 nM. For the same compound, the inhibition at 15 µM on CYP3A4 (CYP3A4, 0 min preincubation) worked out at 0%; at CYP3A4 (CYP3A4, 30 min preincubation), 27%. Moreover, the figures for the “% β-catenin induction” value in data set [1] (test compound 1 μg/mL), in data set [1] (test compound 5 μg/mL) and in [1] (test compound 10 μg/mL) were 10%, 27% and 19%, respectively.
Turning to `COCCOCCOCCOc1cc(Nc2cc(Oc3ccc(NC(=O)Nc4cc(C(C)(C)C)cc(C(N)=O)c4OC)c4ccccc34)ccn2)cc(OC)c1` [Example 34, 5-(tert-Butyl)-2-methoxy-3-(3-(4-((2-((3-methoxy-5-(2-(2-(2-methoxyethoxy)ethoxy)ethoxy)phenyl)amino)pyridin-4-yl)oxy)naphthalen-1-yl)ureido)benzamide], the IC50 on GSK 3α stood at 9330 nM; on Syk, 85 nM; on c-Src, 19 nM; against p38 MAPKα (MAPK14), 25 nM. Moreover, the “inflammatory cell infiltrate in the reticular and laminar propria zones” value in data set [2] is “marked reduction”. For the same compound, in data set [2], the “ulcer grade and epithelial repair compared to the vehicle control” value is recorded as “marked improvements”. The LP inflammation in data set [2] came out at 2.6 ± 0.3. The Ulcer grade in data set [2] was found to be 3.6 ± 0.2. Further, the “activity in in vivo model of colonic inflammation (histopathology analysis)” value in data set [2] is on record as “substantial activity”. Moreover, the “% β-catenin induction” value in data set [1] (test compound 1 μg/mL) is given as 1%; in data set [1] (test compound 5 μg/mL), 7%; in data set [1] (test compound 10 μg/mL), −9%.
Take `COc1cc(Nc2cc(Oc3ccc(NC(=O)Nc4cc(C(C)(C)C)cc(NS(C)(=O)=O)c4OC)c4ccccc34)ccn2)cc(C(=O)NCCN2CCN(C)CC2)c1` [Example 79]: the IC50 on GSK 3α was 4330 nM; on Syk, 339 nM; at c-Src, 35 nM; on p38 MAPKα (MAPK14) it was 56 nM. For the same compound, in [2], the “inflammatory cell infiltrate in the reticular and laminar propria zones” value is “marked reduction”. Besides, the “ulcer grade and epithelial repair compared to the vehicle control” value in data set [2] is on record as “marked improvements”. This compound also showed an LP inflammation in data set [2] of 3.5 ± 0.5. Besides, the Ulcer grade in [2] came to 3.4 ± 0.6. Moreover, the “activity in in vivo model of colonic inflammation (histopathology analysis)” value in data set [2] is reported as “substantial activity”. Besides, the figures for the “% β-catenin induction” value in [1] (test compound 1 μg/mL), in [1] (test compound 5 μg/mL) and in [1] (test compound 10 μg/mL) were −4%, 1% and 5%, respectively.
As for `C#CC(C)(C)c1cc(NC(=O)Nc2ccc(Oc3ccnc(Nc4cc(C)c5[nH]ncc5c4)n3)c3ccccc23)n(-c2ccc(C)cc2)n1` [Ref Cpd A], the “15 μM % Inh” value on CYP3A4 (CYP3A4, 0 min preincubation) was 41%; at CYP3A4 (CYP3A4, 30 min preincubation), 92%. The “% Inh (inhibition at 5 μM reported instead)” value on CYP2C9 (CYP2C9, 0 min preincubation) is 31^[†] %; at CYP2C9 (CYP2C9, 30 min preincubation), 66^[†] %.
For `C#Cc1cc(Nc2nccc(Oc3ccc(NC(=O)Nc4cc(C(C)C)nn4-c4ccc(C)cc4)c4ccccc34)n2)cc(C(=O)NCCN2CCOCC2)c1` [Reference Compound B, 3-ethynyl-5-((4-((4-(3-(3-isopropyl-1-(p-tolyl)-1H-pyrazol-5-yl)ureido)naphthalen-1-yl)oxy)pyrimidin-2-yl)amino)-N-(2-morpholinoethyl)benzamide, reference compound], in [3] (1 mg/mL in DMSO and water (3:1), 60° C., 5 and 24 h), the “decomposition under the conditions of the hydrolytic stability experiment” value is given as “substantial decomposition”. In addition, the “% Parent Remaining” value in data set [3] (0 min) is on record as 100%; in data set [3] (60° C., 300 min) it was 82%; in data set [3] (60° C., 1440 min) it was 36%.
